Data taken from patent US12492188B2, “1H-benzo[D]imidazole derivatives as TLR9 inhibitors for the treatment of fibrosis” (BRISTOL-MYERS SQUIBB COMPANY, priority 2020, dated 2025).
Like-named read-outs stand apart in the source and are kept apart here.

Assays:
Assay type in all cases: cell-based
[1] = biological target: T1, human TLR9 (Homo sapiens, UniProt Q9NR96); test: TLR9 inhibition reporter assay (HEK-Blue cells, secreted embryonic alkaline phosphatase reporter)
T1 construct: host or cells: HEK-Blue cells (HEK293-derived reporter line)
T1 sequence (Q9NR96 26-1032): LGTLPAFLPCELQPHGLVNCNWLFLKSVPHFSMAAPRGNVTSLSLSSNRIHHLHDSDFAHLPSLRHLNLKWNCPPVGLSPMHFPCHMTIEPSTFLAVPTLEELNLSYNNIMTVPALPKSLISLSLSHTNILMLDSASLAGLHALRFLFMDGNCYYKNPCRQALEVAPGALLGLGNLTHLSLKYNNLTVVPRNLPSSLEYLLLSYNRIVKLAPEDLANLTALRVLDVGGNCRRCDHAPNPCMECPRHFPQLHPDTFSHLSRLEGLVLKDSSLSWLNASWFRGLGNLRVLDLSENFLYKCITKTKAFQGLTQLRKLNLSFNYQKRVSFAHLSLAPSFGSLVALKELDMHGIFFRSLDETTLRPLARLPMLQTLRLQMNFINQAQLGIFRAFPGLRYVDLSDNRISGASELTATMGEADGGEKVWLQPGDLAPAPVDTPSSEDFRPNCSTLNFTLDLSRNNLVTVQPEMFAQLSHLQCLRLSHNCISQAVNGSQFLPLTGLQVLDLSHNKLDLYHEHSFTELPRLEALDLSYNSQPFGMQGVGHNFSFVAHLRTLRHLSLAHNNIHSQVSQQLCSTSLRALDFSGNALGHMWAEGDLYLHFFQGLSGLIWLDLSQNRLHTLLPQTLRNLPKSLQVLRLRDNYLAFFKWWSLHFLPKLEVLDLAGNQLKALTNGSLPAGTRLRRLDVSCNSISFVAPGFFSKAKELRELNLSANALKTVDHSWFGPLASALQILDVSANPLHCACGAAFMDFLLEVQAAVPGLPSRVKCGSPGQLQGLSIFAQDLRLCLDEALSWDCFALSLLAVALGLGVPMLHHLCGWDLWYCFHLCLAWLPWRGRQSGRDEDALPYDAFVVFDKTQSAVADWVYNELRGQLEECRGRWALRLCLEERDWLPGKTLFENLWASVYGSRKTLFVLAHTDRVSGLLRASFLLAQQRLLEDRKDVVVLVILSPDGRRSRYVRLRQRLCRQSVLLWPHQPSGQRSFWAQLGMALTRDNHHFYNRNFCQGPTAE
Procedure, shortened: (§1)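 Cells seeded at 15000 (TLR7), 20,000 (TLR8) or 25,000 (TLR9) per well; compound 0.05 nM–50 μM, 30 min RT pre-incubation. Agonists: gardiquimod 7.5 μM, R848 15.9 μM, ODN2006 5 nM respectively. 22 h, 37 °C; SEAP via HEK-Blue Detection; % inhibition vs agonist+DMSO and known-inhibitor wells.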

[2] = biological target: T2, human TLR7 (Homo sapiens, UniProt Q9NYK1); test: TLR7 inhibition reporter assay (HEK-Blue cells, secreted embryonic alkaline phosphatase reporter); conditions: HEK-Blue cells overexpressing human TLR7, stimulated with gardiquimod 7.5 μM; read-out: TLR 7 IC50
T2 construct: host or cells: HEK-Blue cells (HEK293-derived reporter line)
T2 sequence (Q9NYK1 27-1049): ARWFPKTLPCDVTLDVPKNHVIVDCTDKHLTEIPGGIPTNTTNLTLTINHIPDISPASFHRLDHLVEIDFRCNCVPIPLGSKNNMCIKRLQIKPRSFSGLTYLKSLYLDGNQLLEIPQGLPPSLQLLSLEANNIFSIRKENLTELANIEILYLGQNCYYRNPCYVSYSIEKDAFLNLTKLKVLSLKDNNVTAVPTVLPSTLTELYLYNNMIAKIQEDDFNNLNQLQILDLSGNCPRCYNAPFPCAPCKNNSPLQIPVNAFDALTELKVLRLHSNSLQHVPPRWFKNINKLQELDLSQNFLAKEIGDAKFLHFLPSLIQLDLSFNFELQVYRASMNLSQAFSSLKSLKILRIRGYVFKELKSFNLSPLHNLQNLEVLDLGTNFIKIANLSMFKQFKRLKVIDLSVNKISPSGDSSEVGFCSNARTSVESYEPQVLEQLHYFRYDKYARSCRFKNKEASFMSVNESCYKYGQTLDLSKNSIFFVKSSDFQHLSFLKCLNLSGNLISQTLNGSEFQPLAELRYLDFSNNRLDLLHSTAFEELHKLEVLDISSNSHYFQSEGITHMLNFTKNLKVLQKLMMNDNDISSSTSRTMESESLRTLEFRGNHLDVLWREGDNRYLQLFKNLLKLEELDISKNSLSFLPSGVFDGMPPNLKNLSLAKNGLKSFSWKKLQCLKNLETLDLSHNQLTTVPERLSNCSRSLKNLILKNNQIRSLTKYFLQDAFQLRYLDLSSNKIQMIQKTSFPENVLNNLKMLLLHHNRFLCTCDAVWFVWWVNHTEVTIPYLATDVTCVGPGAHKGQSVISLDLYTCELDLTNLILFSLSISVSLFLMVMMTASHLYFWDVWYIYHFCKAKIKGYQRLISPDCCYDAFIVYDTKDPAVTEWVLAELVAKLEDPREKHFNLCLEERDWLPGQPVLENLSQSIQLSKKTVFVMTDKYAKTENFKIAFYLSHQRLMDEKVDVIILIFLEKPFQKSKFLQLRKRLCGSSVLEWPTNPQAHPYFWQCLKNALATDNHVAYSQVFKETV
Procedure, shortened: as §1

[3] = biological target: T3, human TLR8 (Homo sapiens, UniProt Q9NR97); test: TLR8 inhibition reporter assay (HEK-Blue cells, secreted embryonic alkaline phosphatase reporter); conditions: HEK-Blue cells overexpressing human TLR8, stimulated with R848 15.9 μM; read-out: TLR 8 IC50
T3 construct: host or cells: HEK-Blue cells (HEK293-derived reporter line)
T3 sequence (Q9NR97 27-1041): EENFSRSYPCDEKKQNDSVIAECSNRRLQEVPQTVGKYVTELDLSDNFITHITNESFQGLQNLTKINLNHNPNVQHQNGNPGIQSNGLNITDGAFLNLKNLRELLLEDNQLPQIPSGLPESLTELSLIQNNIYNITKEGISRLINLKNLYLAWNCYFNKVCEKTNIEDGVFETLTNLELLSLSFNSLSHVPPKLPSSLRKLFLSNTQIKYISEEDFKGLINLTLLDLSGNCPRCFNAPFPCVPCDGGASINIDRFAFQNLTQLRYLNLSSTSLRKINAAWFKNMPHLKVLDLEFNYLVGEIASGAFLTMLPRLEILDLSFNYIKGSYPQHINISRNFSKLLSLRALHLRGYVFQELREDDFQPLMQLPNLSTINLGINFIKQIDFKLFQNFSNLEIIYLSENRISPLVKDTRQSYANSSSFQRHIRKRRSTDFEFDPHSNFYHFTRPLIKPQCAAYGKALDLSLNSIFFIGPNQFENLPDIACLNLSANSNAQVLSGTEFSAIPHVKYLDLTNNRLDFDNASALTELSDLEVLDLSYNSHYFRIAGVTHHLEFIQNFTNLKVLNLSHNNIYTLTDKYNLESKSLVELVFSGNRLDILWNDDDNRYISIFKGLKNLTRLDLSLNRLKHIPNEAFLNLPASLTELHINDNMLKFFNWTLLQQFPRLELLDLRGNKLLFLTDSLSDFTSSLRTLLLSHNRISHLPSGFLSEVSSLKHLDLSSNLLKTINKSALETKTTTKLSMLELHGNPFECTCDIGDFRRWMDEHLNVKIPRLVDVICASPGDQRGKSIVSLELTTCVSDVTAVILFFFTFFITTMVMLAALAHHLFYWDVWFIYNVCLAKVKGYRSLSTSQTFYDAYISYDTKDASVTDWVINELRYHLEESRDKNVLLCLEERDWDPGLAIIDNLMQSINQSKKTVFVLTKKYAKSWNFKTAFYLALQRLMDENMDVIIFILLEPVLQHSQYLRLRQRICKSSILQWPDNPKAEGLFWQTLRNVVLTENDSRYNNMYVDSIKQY
Procedure, shortened: as §1

[4] = HEK-Blue cells overexpressing human TLR9, stimulated with ODN2006 5 nM, read-out: TLR 9 IC50
[5] = HEK-Blue human TLR9 reporter cells

Compound	IC50 [1]	IC50 [1, 4]	IC50 [2]	IC50 [3]	IC50 [1, 5]	IC50 ([1]; HEK-Blue cells overexpressing human TLR9, stimulated with ODN2006 5 nM, 22 hour incubation, reporter readout)
COc1ccc(-c2nc3c(C)cc(C4CCN(C5CC6CCC(C5)N6C5COC5)CC4)cc3n2C)cc1OC (single isomer, unassigned) [Example 165, 2-(3,4-dimethoxyphenyl)-1,4-dimethyl-6-(1-(8-(oxetan-3-yl)-8-azabicyclo[3.2.1]octan-3-yl)piperidin-4-yl)-1H-benzo[d]imidazole]	1300 nM	1300 nM	> 25 µM	> 25 µM		
COCCN1CCCC(N2CCC(c3cc(F)c4nc(-c5ccc(S(C)(=O)=O)cc5)n(C)c4c3)CC2)CC1 (single isomer, unassigned) [Example 302, 4-fluoro-6-(1-(1-(2-methoxyethyl)azepan-4-yl)piperidin-4-yl)-1-methyl-2-(4-(methylsulfonyl)phenyl)-1H-benzo[d]imidazole]		48 nM	1.9 µM	> 50 µM	48 nM	
COc1ccc(-c2nc3c(C)cc(C4CCN(C5CCN(C6CC6)CC5)CC4)cc3n2C)cc1F [Example 55, 6-(1′-cyclopropyl-[1,4′-bipiperidin]-4-yl)-2-(3-fluoro-4-methoxyphenyl)-1,4-dimethyl-1H-benzo[d]imidazole]		140 nM	9.3 µM	> 50 µM		140 nM
CC(C)CN1C2CCC1CC(N1CCC(c3ccc4nc(-c5ccc(S(C)(=O)=O)cc5)[nH]c4c3F)CC1)C2 (single isomer, unassigned) [Example 220, 7-fluoro-6-(1-(8-isobutyl-8-azabicyclo[3.2.1]octan-3-yl)piperidin-4-yl)-2-(4-(methylsulfonyl)phenyl)-1H-benzo[d]imidazole]	680 nM	683 nM	41.9 µM	> 50 µM		
CC(C)CN1C2CCC1CC(N1CCC(c3cc(F)c4nc(-c5ccc(S(C)(=O)=O)cc5)n(C)c4c3)CC1)C2 (centres unmarked) [Example 284, 4-fluoro-6-(1-(8-isobutyl-8-azabicyclo[3.2.1]octan-3-yl)piperidin-4-yl)-1-methyl-2-(4-(methylsulfonyl)phenyl)-1H-benzo[d]imidazole]		118 nM	5.3 µM	> 50 µM	120 nM	
Cc1cc(C2CCN(C3CC4CCC(C3)N4C3CCOCC3)CC2)cc2c1nc(-c1ccc(S(C)(=O)=O)cc1)n2C (single isomer, unassigned) [Example 161, 1,4-dimethyl-2-(4-(methylsulfonyl)phenyl)-6-(1-(8-(tetrahydro-2H-pyran-4-yl)-8-azabicyclo[3.2.1]octan-3-yl)piperidin-4-yl)-1H-benzo[d]imidazole]	210 nM	211 nM	> 25 µM	> 25 µM		
COc1ccc(-c2nc3c(C)cc(C4CCN(C5CC6CCC(C5)N6C5CCOCC5)CC4)cc3n2C)cc1OC (single isomer, unassigned) [Example 166, 2-(3,4-dimethoxyphenyl)-1,4-dimethyl-6-(1-(8-(tetrahydro-2H-pyran-4-yl)-8-azabicyclo[3.2.1]octan-3-yl)piperidin-4-yl)-1H-benzo[d]imidazole]	40 nM	40 nM	4.7 µM	> 25 µM		

Further lines, results first:

IC50 [1]	IC50 [1, 4]	IC50 [2]	IC50 [3]	IC50 [1, 5]	IC50 ([1]; HEK-Blue cells overexpressing human TLR9, stimulated with ODN2006 5 nM, 22 hour incubation, reporter readout)	Compound
	258 nM	3.8 µM	> 50 µM	260 nM		Cc1cc(C2CCN(C3CCN(CC4CC4)CC3)CC2)cc2c1nc(-c1ccc(S(C)(=O)=O)c(F)c1)n2C [Example 338, 6-(1′-(cyclopropylmethyl)-[1,4′-bipiperidin]-4-yl)-2-(3-fluoro-4-(methylsulfonyl)phenyl)-1,4-dimethyl-1H-benzo[d]imidazole]
	32 nM	0.3 µM	7.9 µM	32 nM		COc1cc(-c2nc3c(C)cc(C4CCN(C5CC6CCC(C5)N6C(C)C)CC4)cc3n2C)cn2ncnc12 (centres unmarked) [Example 357, 6-(6-(1-(8-isopropyl-8-azabicyclo[3.2.1]octan-3-yl)piperidin-4-yl)-1,4-dimethyl-1H-benzo[d]imidazol-2-yl)-8-methoxy-[1,2,4]triazolo[1,5-a]pyridine]
	60 nM	2.1 µM	> 50 µM	60 nM		CC(C)CN1C2CCC1CC(N1CCC(c3cc(F)c4nc(-c5ccc(S(C)(=O)=O)cc5)n(C5CC5)c4c3)CC1)C2 (single isomer, unassigned) [Example 323, 1-cyclopropyl-4-fluoro-6-(1-(8-isobutyl-8-azabicyclo[3.2.1]octan-3-yl)piperidin-4-yl)-2-(4-(methylsulfonyl)phenyl)-1H-benzo[d]imidazole]
	12.4 nM	10.8 µM	> 50 µM	120 nM		Cc1cc(C2CCN(C3CC4CCC(C3)N4C(C)C)CC2)cc2c1nc(-c1ccc(S(C)(=O)=O)c(F)c1)n2C (centres unmarked) [Example 344, 2-(3-fluoro-4-(methylsulfonyl)phenyl)-6-(1-(8-isopropyl-8-azabicyclo[3.2.1]octan-3-yl)piperidin-4-yl)-1,4-dimethyl-1H-benzo[d]imidazole]
